SMILES strings stand for the structures. Read-outs that look alike come from different tables or passages of the source.

The values that follow come from patent US20240416143A1, “PHOTONIC ANTIMICROBIAL WOUND SURFACE DRESSING” (The General Hospital Corporation, priority 2021, published 2024).

The subject of test [1] is MRSA biofilms in ex-vivo porcine skin. The test is described as follows: Photoinactivation of biofilms in ex vivo porcine partial thickness wounds by menadione + aBL. The test is classed as cell-based, methicillin-resistant Staphylococcus aureus. On the procedure: Skin was handled and sanitized with 70% isopropanol solution after hair shaving. The explants and inner wounds were created using a 12 mm and 4 mm biopsy punches respectively. The explants were placed in 12 wells plates using a (8 μm pore) inserts (Corning™ Falcon™). 1 mL of DMEM media was added to each well in the plate before the insert. After 24 hours, the inner wounds in the explants were inoculated with 20 μL of 10^8 CFU/mL of bacterial solution. After that, the explants were incubated at 37° C. and 5% CO2 for 48 hours to ensure the growth of a mature bacterial biofilm. The inner wounds of the explants were replenished daily with fresh BHI media to ensure that the wounds are hydrated.
48 hours following the inoculation, mature monobacterial biofilms of MRSA, P. aeruginosa, and E. coli were obtained with 8.00 log10 CFU/g per wound bed on each explant. MRSA biofilms in explant were reduced by 0.81 log10 CFU/g after the treatment of just aBL 250 J/cm^2 (50 mW/cm^2). However, MRSA biofilms in ex-vivo porcine skin were reduced by up to 4.18 log10 CFU/g when treated with aBL combined with menadione (200 μg/mL). For MRSA biofilms, the log reduction of mature monobacterial biofilm increased as the menadione concentration increased (see FIGS. 16A-16B). […]

A further test deals with E. coli. Description: MIC of menadione by broth microdilution, with or without aBL. Type of test: cell-based, Escherichia coli ATCC 25922. Here is the method: The MICs of menadione in different bacterial strains were determined by a standard broth microdilution assay according to the Clinical and Laboratory Standards Institute. Briefly, menadione was prepared at 100 mg/mL in Tween 80/DMSO (1:1) as a stock solution. The stock solution was diluted to 2048 μg/mL in BHI and then serial dilutions were performed to 1024-0.015 μg/mL in a 96-well plate. Then, a 10 μL stationary growth-phase culture of 10^8 CFU/mL bacteria in BHI broth was added to the 96-well plate containing the serial dilutions of menadione. The medium containing a similar amount of Tween 80/DMSO (1:1) served as a control. The microplates were incubated at 37° C. for 24 hours and the lowest concentration of the compound capable of completely inhibiting bacterial growth was referred to as the MIC.
However, we investigated the effects of aBL (50 mW/cm^2) in potentiating the antibacterial activities of menadione in the three strains of bacteria. […] The highest fluence that we investigated was 125 J/cm^2, when we irradiated the bacteria for 42 minutes.

For another test, the system named is MRSA. Description: General ROS by DCFH-DA assay in bacteria. The test is classed as cell-based, methicillin-resistant Staphylococcus aureus. Here is the method: 1.2.9.1 General ROS measured by […] (DCFH-DA) assay: DCF-DA was purchased from Thermofisher. […] The production of ROS by menadione when combined with blue light was measured in the presence and absence of bacteria. The bacteria (MRSA) was grown in BHI broth medium with shaking overnight. Cells were collected by centrifugation at 4,000 rpm for 5 minutes and resuspended in PBS in the stationary growth phase culture of 1×10^8 CFU/mL. The microbial suspension was transferred to a 35×12-mm dish, mixed with 10 μg/mL of menadione, and stained with 10 μM DCFH-DA solution per the manufacturer's instruction. The solutions (with and without bacteria) were irradiated with the blue light at 50 mW/cm^2 and the samples were collected every 15 minutes to be analyzed by Microplate Spectrofluorometer (SPECTRAmax®, Molecular Devices, USA) at λex=495 nm and λem=525 nm. The control and the menadione/dark groups were generated under the same conditions without irradiation.
We investigated the possibility that minocycline and doxycycline might be acting as a photosensitizer. To do so, the production of ROS by minocycline and doxycycline combined with blue light was measured by the ROS probe DCF in MRSA. From FIG. 28, it can be observed that each of minocycline and doxycycline when combined with blue light at 405 nm produced ROS.

Consider `CC1=CC(=O)c2ccccc2C1=O` [menadione, 2-methyl-1,4-naphthoquinone], for which the “biofilm reduction by menadione in the absence of aBL” value in test [1] (ex vivo porcine explants, no aBL) is on record as “no effect of biofilm reduction”. In addition, the “biofilm reduction by aBL combined with menadione” value in test [1] (ex vivo porcine wound, menadione 200 μg/mL + aBL 250 J/cm^2 (50 mW/cm^2)) is recorded as “up to 4.18 log10 CFU/g”. The MIC with E. coli (Escherichia coli, light or radiation study, 5 min, aBL 15.62 J/cm^2 (5 mins.), 50 mW/cm^2, read-out: MIC) is 256 mg/L; in the test on E. coli (Escherichia coli, light or radiation study, 0.175 h, aBL 31.25 J/cm^2 (10.5 mins.), 50 mW/cm^2, read-out: MIC) it was 256 mg/L; in the test on E. coli (Escherichia coli, light or radiation study, 0.35 h, aBL 62.5 J/cm^2 (21 mins.), 50 mW/cm^2, read-out: MIC) it was 4 mg/L; in the test with E. coli (Escherichia coli, light or radiation study, 0 J/cm^2 (Dark), read-out: MIC) it was 512 mg/L; in the test on E. coli (aBL 125 J/cm^2 (42 mins.), 50 mW/cm^2), “completely eradicated”. Besides, in the test with MRSA (MRSA, 10 μg/mL menadione, 180 J/cm^2), the “production of ROS measured by DCF, menadione+aBL vs aBL alone” value was “two times higher”. The “ROS generation in bacteria by menadione in the dark” value in the test on MRSA (absolute dark) is “does not appear to generate significant ROS”. In the test on MRSA (bacteria, menadione + aBL), the “increase of total ROS, menadione combined with aBL” value turned out to be 2.5 fold.
